Here are results for two molecules from PMC9658586, “1,4-Naphthoquinone Motif in the Synthesis of New Thiopyrano[2,3-d]thiazoles as Potential Biologically Active Compounds” (Molecules, 2022).

The test system of series [1] is isolated normal human peripheral blood lymphocytes. Nature of the series: MTT cell viability assay, isolated lymphocytes. The format is cell-based. Particulars: 72 h, MTT, normal human peripheral blood lymphocytes, read-out: IC50, Isolated lymphocytes. As to the method: We continued the cytotoxicity study of synthesized derivatives 3.1–3.6 toward tumor and pseudo-normal cells in vitro. The MTT cell viability assay was performed 72 h after cells treatment with various concentrations of studied compounds and doxorubicin, a reference drug. […] The THP-1 cells, monocytes isolated from peripheral blood from an acute monocytic leukemia patient, were also sensitive to the 3.6 treatment. […] The 3.6 inhibited the viability of epidermoid carcinoma (KB3-1 and its ABCB1-overexpressing subline KBC-1) and colon carcinoma (HCT116wt and its p53 knockdown subline HCT116 p53-/-) cells. It is known that ABCB1 (P-glycoprotein), MRP1/ABCC1 (multidrug resistance protein 1), and BCRP/BCG2 (breast cancer resistance protein) have been reported to be key players in resistance to chemotherapy. […] Thus, the p53 status of colon carcinoma cells influenced the anti-tumor effects of the studied 3,5,10,11-tetrahydro-2H-benzo[6,7]thiochromeno[2,3-d][1, 3]thiazole-2,5,10-trione. The p53 has diverse mutations in almost all human tumors, stimulating their hyper-proliferation, invasion/metastasis, and thus, influencing the potency of various chemotherapeutics (i.e., platins and anti-metabolites). […] Based on our findings, one can assume a p53-dependent mode of action for 3.6 toward colon cancer cells.
(§1) MTT assay was used to examine the viability of tumor and pseudo-normal cells after their treatment with studied thiopyrano[2,3-d]thiazole derivatives and doxorubicin (Actavis S.R.L., Bucharest, Romania). Cells were seeded in 96-well plates at a density of 3–5 × 103. After 24 h, cells were treated with compound […], 1,4-NQ (0.1–100 µM), and doxorubicin (0.1–100 µM). After incubation for 72 h, MTT reagent (Sigma-Aldrich, St. Louis, MO, USA) was added to each well, according to the Sigma-Aldrich protocol. An absorbance Reader BioTek ELx800 (BioTek Instruments, Inc., Winooski, VT, USA) was used to measure the reaction product.
The study protocol with human lymphocytes isolated from healthy adult peripheral blood was approved by BioEthics Committee of the Institute of Cell Biology of National Academy of Sciences of Ukraine (protocol No 2 from 27 January 2019), and with written consent of donor.
For orientation: Formazan colour is commonly taken as a measure of viable cells.

In series [2] the test system is human chronic myelogenous leukemia K562 cells. Nature of the series: MTT cell viability assay, K562. It counts as cell-based. Particulars: Homo sapiens, K562, 72 h. The method, then:
(§2) The MTT cell viability assay was performed 72 h after cells treatment with various concentrations of studied compounds and doxorubicin, a reference drug. […] It is known that ABCB1 (P-glycoprotein), MRP1/ABCC1 (multidrug resistance protein 1), and BCRP/BCG2 (breast cancer resistance protein) have been reported to be key players in resistance to chemotherapy. […] The p53 has diverse mutations in almost all human tumors, stimulating their hyper-proliferation, invasion/metastasis, and thus, influencing the potency of various chemotherapeutics (i.e., platins and anti-metabolites).
(§3) Human colon carcinoma HCT116 cells, human breast adenocarcinoma cells of MCF-7 line, human T-leukemia Jurkat cells, human chronic myelogenous leukemia K562 cells, and human keratinocytes of HaCaT line were from the Cell Collection of R.E. Kavetsky Institute of Experimental Pathology, Oncology and Radiobiology (Kyiv, Ukraine). Murine macrophages of J774.2 line were a generous gift from Professor Sir John Vane (William Harvey Research Institute, London, UK) via Professor Janusz Marcinkiewicz (Jagiellonian University Medical College, Krakow, Poland). Human colon carcinoma HCT116 p53-/- cells with knockdown of P53 gene, as well as human epidermoid cervix carcinoma KB3-1 cells and its ABCB1-overexpressing subline KBC-1, were kindly provided by Professor W. Berger (Institute of Cancer Research, Medical University of Vienna, Austria). […] Human leukemia monocytic THP-1 cells were kindly provided by Professor M. Herrmann (Department of Internal Medicine, Institute for Clinical Immunology and Rheumatology, University of Erlangen-Nuremberg, Germany). Cells were cultured in DMEM or RPMI-1640 medium supplemented with 10% fetal bovine serum (all were purchased from Biowest, Nuaille, France) at 37 °C in a humidified atmosphere containing 5% CO2.
as §1

Series [3] concerns human keratinocytes of HaCaT line. Nature of the series: MTT cell viability assay, HaCaT. It counts as cell-based. Particulars: 72 h, pseudo-normal cells. The method, then: as §2
as §3, with “Cells were cultured in DMEM or RPMI-1640 medium supplemented with 10% fetal bovine serum (all were purchased from Biowest, Nuaille, France) at 37 °C in a humidified atmosphere containing 5% CO2.” left out
(§4) MTT assay was used to examine the viability of tumor and pseudo-normal cells after their treatment with studied thiopyrano[2,3-d]thiazole derivatives and doxorubicin (Actavis S.R.L., Bucharest, Romania). […] An absorbance Reader BioTek ELx800 (BioTek Instruments, Inc., Winooski, VT, USA) was used to measure the reaction product.

A further series concerns MDA-MB-435/Melanoma. Nature of the series: NCI single-dose screen, MDA-MB-435. Particulars: 10 μM, 48 h. The format is cell-based, human. The method, then:
(§5) Considering the results of previous studies of fused thiazolidinones and their analogs, a series of thiopyrano[2,3-d]thiazoles with naphthoquinone fragments in the structure were studied for their anticancer activity. Thus, synthesized thiopyranothiazole derivatives 3.5 and 3.6 were selected by the National Cancer Institute (NCI), U.S., for their anticancer activity at 10 μM concentration toward a panel of sixty cancer cell lines representing nine different types (leukemia, melanoma, lung, colon, CNS, ovarian, renal, prostate, and breast cancers) (Figures S13–S14). Selection for screening based on new derivatives’ ability to add diversity to the NCI small molecules collection and anticancer assays were performed according to the NCI guidelines and protocols previously described. The compounds were added at the mentioned concentration, and the cell cultures were incubated for 48 h. The results for each compound were reported as the growth percent (GP%) of treated cells compared with untreated control cells.
(§6) Anticancer in vitro assay was performed on the human tumor cell lines panel derived from nine neoplastic diseases by the protocol of the Drug Evaluation Branch, National Cancer Institute, Bethesda, MD, USA [44, 45, 46]. […] GP% was spectrophotometrically evaluated vs. controls not treated with test agents.

Series [4] deals with human epidermoid cervix carcinoma KB3-1 cells. Nature of the series: MTT cell viability assay, KB3-1. It counts as cell-based. Particulars: Homo sapiens, KB 3-1, 72 h. The method, then: as §2, §3, §1
For series [5], the system named is panel of sixty cancer cell lines. Briefly: NCI single-dose (10 μM) anticancer screen, sulforhodamine B, 60-cell-line panel. Particulars: 48 h; for Mean Growth, %: growth percent vs untreated control, 60 cell lines; for Range of Growth, %: range over 60 cell lines. The format is cell-based, human. The method, then:
as §5
Anticancer in vitro assay was performed on the human tumor cell lines panel derived from nine neoplastic diseases by the protocol of the Drug Evaluation Branch, National Cancer Institute, Bethesda, MD, USA [44, 45, 46]. Tested compounds were added to the culture at a single concentration (10^−5 M), and the cultures were incubated for 48 h. Endpoint determinations were made with a protein binding dye, sulforhodamine B. Results for each tested compound were reported as the GP% of the treated cells compared to untreated control cells. GP% was spectrophotometrically evaluated vs. controls not treated with test agents.

Series [6] relates to Human colon carcinoma HCT116 p53-/- cells. Nature of the series: MTT cell viability assay, HCT116 p53-/-. It counts as cell-based. Particulars: for IC50: Homo sapiens, read-out: IC50, HCT116 p53-/-. As to the method: as §2, §3, §1
Series [7] relates to human T-leukemia Jurkat cells. Nature of the series: MTT cell viability assay, Jurkat. The format is cell-based. Particulars: 72 h. The method, then:
as §2
Human colon carcinoma HCT116 cells, human breast adenocarcinoma cells of MCF-7 line, human T-leukemia Jurkat cells, human chronic myelogenous leukemia K562 cells, and human keratinocytes of HaCaT line were from the Cell Collection of R.E. Kavetsky Institute of Experimental Pathology, Oncology and Radiobiology (Kyiv, Ukraine). […]
as §4

In another series the test system is MCF7/Breast Cancer. Nature of the series: NCI single-dose screen, MCF7. The format is cell-based, human. Particulars: 10 μM, 48 h. As to the method:
as §5, §6

Read-outs that look alike come from different tables or passages of the source.

Take `COc1cccc2c1C(=O)c1c(O)c3c(c(O)c1C2=O)C[C@@](O)(C(=O)CO)C[C@@H]3O[C@H]1C[C@H](N)[C@H](O)[C@H](C)O1` [Doxorubicin, doxorubicin, reference compound]: the IC50 was 800 to 1000 nM in [1] (Homo sapiens, Lymphocyte); 1000 nM in series [1] (listed as Dox); 620 nM in series [2]; 800 nM in [3] (listed as Dox); 800 to 1000 nM in [3] (Homo sapiens, HaCaT); 730 nM in [4]. Also, the IC50 was 580 nM in [6] (HCT-116, 72 h) and 670 nM in series [7]. Further, the “Most Sensitive Cell Line Growth, % (MDA-MB-435/Melanoma)” value with MDA-MB-435/Melanoma is on record as −82.60%. Besides, in series [5], the “Mean Growth, %” value is recorded as −20.30%. Moreover, the “Range of Growth, %” value in [5] is −86.40 to 72.90%.

Turning to `O=C1C2=C(C(=O)c3ccccc31)C(CCc1ccccc1)c1sc(=O)[nH]c1S2` (stereo not shown) [Compound 3.6, 11-Phenethyl-3,11-dihydro-2H-benzo[6,7]thiochromeno[2,3-d]thiazole-2,5,10-trione], the IC50 was 58700 nM in series [1] (Lymphocyte); 25700 nM in series [2]; more than 100000 nM in series [3] (Homo sapiens, HaCaT); 27700 nM in series [4]; 12300 nM in series [6] (HCT-116, MTT, 72 h); 760 nM in series [7]. For the same molecule, in the series with MCF7/Breast Cancer, the “Most Sensitive Cell Line Growth, % (MCF7/Breast Cancer)” value is 58.83%. The “Most Sensitive Cell Line Growth, % (MDA-MB-435/Melanoma)” value in the series on MDA-MB-435/Melanoma is recorded as 52.87%. For the same molecule, the “Mean Growth, %” value in series [5] was 90.58%. Also, the “Range of Growth, %” value in series [5] was in the range of 45.25 to 130.11%. In addition, the “cytotoxic action on p53-deficient colon carcinoma cells relative to HCT116wt” value in [6] (HCT116 p53-/- vs HCT116wt) was “two times weaker”.
